{"source": "paper PMC4640066", "about": "(Nature Communications, 2015)", "key": {"[1]": {"tested_on": "HeLa cells expressing EB3-EGFP (mitotic spindle)", "experiment": "EB3-EGFP signal tracking, mitotic (MG132 metaphase) cells", "format": "cell-based, human", "conditions": "30 μM", "description": "Figure 4 Impact of gatastatin on mitotic spindle dynamics. (a,b) γ-Tubulin function is important for normal bipolar spindle formation. (a) Scheme of the experiment in b. HeLa cells were arrested at prometaphase by treatment with 10 μM of STLC for 15 h before STLC was washed out. Progression through mitotic phases was then monitored either in the presence or absence of 30 μM of gatastatin for 2 h. (b) The mitotic stages of 20 cells per experiment from the scheme in a were analysed in three independent experiments. Error bars represent s.d. (c–e) γ-Tubulin function is important for normal bipolar spindle maintenance. (c) Scheme of the experiment in d,e. After STLC washout, HeLa cells were arrested at metaphase with bipolar spindles by treatment with 5 μM of MG132 for 2 h. 30 μM Gatastatin was added to cells and incubated for 2 h in the presence of MG132. (d) The spindle length (distance between centrosomes) of cells in scheme c was measured as described in Fig. 3g. Spindles of 20 cells per experiment were analysed. Three independent experiments were performed and one representative experiment is shown. Error bars represent s.d. Two-tailed, unpaired Student's t-test was used to obtain P value. (e) The effect of gatastatin on spindle MT dynamics was analysed using HeLa cells expressing EB3-EGFP. EB3 signals of spindle in c were monitored. […] Scale bar, 5 μm.\nA HeLa ‘Kyoto' cell line stably expressing EB3-EGFP (a kind gift from Dr J. Ellenberg) was maintained in DMEM+GlutaMAX (Gibco) supplemented with 10% FBS, 2 mM L-glutamine, 100 U ml^−1 penicillin, 100 μg ml^−1 streptomycin, 1 mM sodium pyruvate and 0.5 mg ml^−1 G418. Cells were seeded into eight-well Lab-Tek chambers (Nunc, Rochester, NY) for 24-h prior imaging. For imaging, the medium was exchanged to Live Cell Imaging Solution (Molecular Probes Life Technologies) supplemented as described above and containing various concentrations of AG1 or gatastatin. Interphase cells were incubated with drugs for 15 min and mitotic cells were treated as described in Fig. 4c. Then, EB3 tracks were observed under a PerkinElmer UltraVIEW ERS Spinning Disk microscope (Software: UltraVIEW ERS Imaging Suite) equipped with a Plan-APOCHROMAT × 100/1.4 Oil DIC objective, a Confocal Scanner Unit (Yokogawa CSU 22), a Hamamatsu EM CCD camera (C9100-50) and a 488-nm Argon laser at 37 °C, and time-lapse sequences were performed for 60 s with a 400-ms interval. Automatic analysis of EB3-EGFP signal tracks was performed with ImageJ (http://imagej.nih.gov/ij/) and Matlab (Mathworks) as described."}, "[2]": {"molecular_target": "T1, α/β-tubulin (Sus scrofa, UniProt P02550+P02554)", "T1 construct": "α/β-Tubulin was purified from porcine brain; from tissue; host or cells: porcine brain", "T1 sequence (P02550 whole entry)": "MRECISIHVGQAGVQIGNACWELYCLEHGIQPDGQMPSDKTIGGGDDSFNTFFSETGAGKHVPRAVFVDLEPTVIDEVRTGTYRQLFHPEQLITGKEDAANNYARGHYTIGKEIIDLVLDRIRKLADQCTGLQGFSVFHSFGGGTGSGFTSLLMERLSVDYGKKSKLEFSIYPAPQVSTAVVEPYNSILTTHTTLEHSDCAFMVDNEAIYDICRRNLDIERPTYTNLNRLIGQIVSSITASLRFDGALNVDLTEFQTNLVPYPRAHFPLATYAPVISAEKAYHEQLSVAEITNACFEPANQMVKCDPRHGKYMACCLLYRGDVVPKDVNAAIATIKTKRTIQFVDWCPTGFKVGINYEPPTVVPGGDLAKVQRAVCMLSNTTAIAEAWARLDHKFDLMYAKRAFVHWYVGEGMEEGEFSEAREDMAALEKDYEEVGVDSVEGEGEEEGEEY", "T1 sequence (P02554 whole entry)": "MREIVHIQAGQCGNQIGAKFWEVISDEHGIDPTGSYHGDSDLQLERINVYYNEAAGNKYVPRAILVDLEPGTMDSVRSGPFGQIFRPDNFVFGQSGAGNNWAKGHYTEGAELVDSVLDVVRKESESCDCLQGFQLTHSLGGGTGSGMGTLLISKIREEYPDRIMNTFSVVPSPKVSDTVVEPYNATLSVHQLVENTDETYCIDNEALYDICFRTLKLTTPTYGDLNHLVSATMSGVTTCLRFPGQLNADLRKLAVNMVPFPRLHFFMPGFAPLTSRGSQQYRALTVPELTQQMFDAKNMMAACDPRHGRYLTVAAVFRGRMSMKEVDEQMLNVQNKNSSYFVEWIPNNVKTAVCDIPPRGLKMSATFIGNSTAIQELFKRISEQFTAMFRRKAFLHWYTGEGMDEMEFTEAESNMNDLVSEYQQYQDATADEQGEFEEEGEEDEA", "experiment": "MT dynamics in vitro by TIRF microscopy of single MTs", "format": "biochemical, porcine", "conditions": "30 μM, 5 μM tubulin, GMPCPP seeds", "description": "Purified α/β-tubulin was labelled with tetramethylrhodamine Succinimidyl Ester (C-1171, Life Technologies), Alexa Fluor 647 NHS Ester (A-20106, Life Technologies) or NHS-LC-biotin (21336, Life Technologies) as described. Briefly, α/β-tubulin was polymerized to form MTs. Then, the MTs were centrifuged, resuspended in labelling buffer containing NHS-conjugated dye or biotin. After the labelling reaction, two cycles of polymerization and depolymerization were performed to obtain active α/β-tubulin.\nGMPCPP MT seeds were prepared by copolymerization of non-labelled tubulin, tetramethylrhodamine-labelled tubulin and biotin-labelled tubulin with 0.2 mM GMPCPP to yield the rhodamine and biotin labelling ratio 2% and 3%, respectively. GMPCPP was prepared enzymatically from GMPCP (M3170, Sigma-Aldrich) and nucleotide diphosphate kinase (N0379, Sigma-Aldrich)[35]. The glass chambers for observation were prepared as follows. […] The images of MTs were observed under total internal reflection fluorescence microscopy (IX81, Olympus) with a × 100 objective lens (UPlanSApo, numerical aperture (NA) 1.40, Olympus) and recorded at the frame rate of two frames per second using iXon3 EM CCD camera (Andor). […]"}, "[3]": {"tested_on": "HeLa cells", "experiment": "Transition from S phase to mitotic entry and spindle formation", "format": "cell-based, human", "conditions": "30 μM", "description": "Cells expressing EGFP-α-tubulin and mCherry-H2B were prepared as described previously. Cells were arrested at the S phase with 2-mM thymidine treatment for 15 h. To determine the time required for mitotic entry from S phase release, thymidine was removed by washing cells with PBS three times. After treatment with 30 μM gatastatin for 9 h, time-lapse analysis was performed using DeltaVision Olympus IX71 microscope (Applied Precision) equipped with CoolSNAP HQ camera (Photometrics). Images were taken every 6 min with 12 z-stack (1 μm per stack). During live cell imaging, cells were maintained at 37 °C and were supplied with 5% CO2. The timing of the mitotic entry was defined by the chromosome condensation after nuclear envelope breakdown."}, "[4]": {"conditions": "2 h with MG132, mitotic HeLa EB3-EGFP, mean±s.d."}}}
{"smiles": "COc1cc2c(=O)c(-c3cc(OC)c4c(c3OC)OCO4)coc2cc1OCc1ccccc1", "note": "[Gatastatin, O^7-demethylbenzyl AG1]", "values": [{"measurement": "Track length", "setting": "[1]; [4]", "result": "0.53±0.09", "unit": "μm"}, {"measurement": "Track lifetime", "setting": "[1]; [4]", "result": "1.76 ± 0.66", "unit": "s"}, {"measurement": "Velocity", "setting": "[1]; [4]", "result": "11.21±1.68", "unit": "μm min^−1"}, {"measurement": "Track numbers", "setting": "[1]; 2 h with MG132, mitotic, from a 25-μm^2 area in the spindle", "result": "37.27±8.12"}, {"measurement": "Reduction of the number of growing MTs", "setting": "[1]; preformed metaphase spindle (MG132), compared with control", "result": 17, "unit": "%"}, {"measurement": "Effect on MT growth velocity (TIRF analysis of single MTs)", "setting": "[2]", "result": "did not affect MT growth velocity"}, {"measurement": "Mitotic cells with abnormal bipolar spindles with misaligned chromosomes", "setting": "[3]; HeLa cells released from S phase (thymidine)", "result": "~80", "unit": "%"}, {"measurement": "Timing of mitotic entry versus DMSO", "setting": "[3]; HeLa released from S phase", "result": "virtually identical"}]}
